Columns and labels:
COS7 IGF-IR = assay: Species crossreactivity by immunoprecipitation/Western blot; assay type: binding, old world monkey; conditions: immunoprecipitation, antibody 1 μg/ml
Description: To perform immunoprecipitation experiments, we plated cells in DMEM high glucose media supplemented with L-glutamine (0.29 mg/ml), 10% heat-inactivated FBS, and 500 μg/ml each of geneticin, penicillin and streptomycin to 50% confluence in T25 flasks. We then added 100 μl of an antibody of the invention in Hank's buffered saline solution (HBSS; Gibco BRL) at a concentration of 1 μg/ml. We incubated the plates for 30 minutes at 37° C. in an incubator and then stimulated the cells with IGF-I at 100 ng/ml for 10 minutes at room temperature. We lysed the cells in RIPA buffer (Harlow and Lane, supra) and immunoprecipitated IGF-IR with 2 μg of pan-specific SC-713 anti-IGF-IR antibody (Santa Cruz) plus protein A agarose beads for 1 hour at 4° C. We pelleted the beads and wash three times with PBS/T (PBS+0.1% Tween-20) and then boiled the beads in 40 μl Laemmli buffer containing 5% βME.
The samples prepared as described above were then analyzed by Western blot. We loaded 12 μl of each sample per lane on 4-10% gradient Novex™ gels run with 1×MES buffer (Novex™). Gels were run at 150V for 1 hour or at 200V for approximately 30 minutes. We then transferred the gel to a membrane in Novex™ transfer buffer with 10% methanol either overnight at 100 mA or for 1-1.5 hours at 250 mA. […]

3T3/IGF-IR cell tumors = assay: Growth inhibition of 3T3/IGF-IR cell tumors; assay type: in vivo, athymic (nu/nu) mice
Description: We tested whether anti-IGF-IR antibodies of the invention would function to inhibit tumor growth. We induced tumors as described above (Example VIII) and when established, palpable tumors formed (i.e. 250 mm^3, within 6-9 days), we treated the mice with a single, 0.20 ml dose of antibody by intraperitoneal injection. We measured tumor size by Vernier calipers across two diameters every third day and calculated the volume using the formula (length×[width]^2)/2 using methods established by Geran, et al., “Protocols for screening chemical agents and natural products against animal tumors and other biological systems,” Cancer Chemother. Rep. 3:1-104.
Tumors were induced in nude mice as described in Example IX. Mice with established subcutaneous tumors of approximately 250 mm^3 were treated on days 1, 8, 15 and 22 with various amounts of 2.13.2 antibody (i.p.) or 7.5 mg/kg adriamycin (i.v.), either as single agents or in combination, as described in Example IX.
Tumors were induced in nude mice as described in Example IX. Mice with large established subcutaneous tumors of slightly less than 2000 mm^3 were treated on days 1 and 8 with various amounts of 2.13.2 antibody (i.p.) or 7.5 mg/kg adriamycin (i.v.), either as single agents or in combination, as described in Example IX. […] Control, antibody alone and adriamycin alone animal groups were terminated at day 5, when the tumor size exceeded 2000 mm^3.

[1] = Pharmacokinetics after single intravenous injection; assay type: in vivo; conditions: cynomolgus monkeys, 3, 30 or 100 mg/kg intravenously
Description: To evaluate the pharmacokinetics of the anti-IGF-IR antibodies, cynomolgus monkeys were injected intravenously with 3, 30 or 100 mg/kg of 2.13.2 antibody in an acetate buffer. Serum was collected from the monkeys at various time points and anti-IGF-IR antibody concentrations in the monkeys were determined for a period of up to ten weeks levels. To quantitate functional serum antibody levels, the extracellular domain of the human IGF-IR (IGF-I-sR, R&D Systems, Catalog # 391GR) was bound to 96-well plates. Monkey serum (diluted between 1:100 and 1:15,000) was added to the assay plates so that each sample would be within the linear range of the standard curve and incubated under conditions in which any anti-IGF-IR antibody would bind to IGF-I-sR. After washing the plates, a labeled anti-human IgG antibody was added to the plates and incubated under conditions in which the anti-human IgG antibody would bind to the anti-IGF-IR antibody. The plates were then washed and developed, and a control standard curve and linear regression fits used to quantitate the amount of anti-IGF-IR antibodies.

In the case of “2.13.2: human IgG2κ monoclonal antibody specific for IGF-IR from hybridoma 2.13.2 (ATCC PTA-2788)”, the “binding to COS7 IGF-IR” value (COS7 IGF-IR) is reported as “able to bind”, the tumor cell growth (3T3/IGF-IR cell tumors; antibody i.p. on days 1, 8, 15 and 22, single agent) is reported as “inhibits tumor cell growth” and the “growth delay versus treatment with the antibody or adriamycin alone” value (3T3/IGF-IR cell tumors; combination with single dose 7.5 mg/kg adriamycin i.v.) is reported as 7 days. The “tumor cell growth in combination with adriamycin” value (3T3/IGF-IR cell tumors; days 1, 8, 15 and 22, with 7.5 mg/kg adriamycin i.v.) was “enhances inhibition of tumor cell growth”, the “effect on effectiveness of adriamycin” value (3T3/IGF-IR cell tumors; single dose antibody with single dose 7.5 mg/kg adriamycin i.v.) was “enhanced the effectiveness of adriamycin” and the tumor growth (3T3/IGF-IR cell tumors; single treatment i.p., antibody alone) was “inhibited the growth”. For the same substance, the “efficacy against large tumors in combination with adriamycin” value (3T3/IGF-IR cell tumors; tumors slightly less than 2000 mm^3, days 1 and 8, with 7.5 mg/kg adriamycin i.v.) was “highly efficacious”, the “dose proportionality of serum amounts” value [1] was “dose-proportional” and the volume distribution [1] was 74 to 105 mL/kg.

Source: patent publication US7815907B2, “Antibodies to insulin-like growth factor I receptor” (Amgen Fremont Inc., priority 2001, dated 2010)
